Results reported in patent US12076357B2, “Preparations containing berry extracts for use in the prophylaxis and/or treatment of viral infections caused by Paramyxoviridae” (Evonik Operations GmbH, priority 2019, dated 2024).

System: GFP-encoding measles virus
Assay: Measles virus replication, infected cells counted with PerkinElmer Ensight system (Part II)
Settings: 75 μg/mL, quadruplets
Protocol: Vero-Slam cells were incubated with decreasing concentration of the solubilized test compounds. All concentrations were analyzed on three independent six-well plates or by independent six replicates on a black 96well plate (PerkinElmer). Cells were infected with GFP-encoding wild-type measles virus and incubated for two days. […] Part II: Two days after infection measles virus-infected cells and GFP expressing cells were directly counted using the PerkinElmer Ensight system with optical cell culture plates. The instrument was controlled by manual counting. Viral titers were calculated as infectious particles per mL.
However, in contrast to the previous experiments, infected cells were counted with the PerkinElmer Ensight system, since this system allows to quantify changes in viral titers on single cell level.
However, only non-toxic compound concentrations were applied.
The cells were subsequently infected with GFP-encoding measles virus, and GFP expressing cells were quantified with the Perkin Elmer Ensight reader. All infections were performed in triplicate assays.

In the case of `C[C@@H]1O[C@@H](OC[C@H]2O[C@@H](Oc3cc4c(O)cc(O)cc4[o+]c3-c3cc(O)c(O)c(O)c3)[C@H](O)[C@@H](O)[C@@H]2O)[C@H](O)[C@H](O)[C@H]1O` [D3R, delphinidin 3-rutinoside], the “number of infected cells” value is reported as “reduced the number of infected cells”.
